Literature values, collected in US9376416B2, “Composition containing scirpusin B, and process for producing composition containing scirpusin B” (MORINAGA & CO., LTD., priority 2010, dated 2016).

Experiments:
[1] = reported in Non-Patent Citation 2
α-amylase = conditions: reported in Non-Patent Citation 3 (mouse α-amylase)
xanthine oxidase = xanthine oxidase (Homo sapiens, UniProt P47989); conditions: reported in Non-Patent Citation 4
HIV = conditions: reported in Non-Patent Citation 1

Chain of xanthine oxidase (P47989 whole entry, species assumed): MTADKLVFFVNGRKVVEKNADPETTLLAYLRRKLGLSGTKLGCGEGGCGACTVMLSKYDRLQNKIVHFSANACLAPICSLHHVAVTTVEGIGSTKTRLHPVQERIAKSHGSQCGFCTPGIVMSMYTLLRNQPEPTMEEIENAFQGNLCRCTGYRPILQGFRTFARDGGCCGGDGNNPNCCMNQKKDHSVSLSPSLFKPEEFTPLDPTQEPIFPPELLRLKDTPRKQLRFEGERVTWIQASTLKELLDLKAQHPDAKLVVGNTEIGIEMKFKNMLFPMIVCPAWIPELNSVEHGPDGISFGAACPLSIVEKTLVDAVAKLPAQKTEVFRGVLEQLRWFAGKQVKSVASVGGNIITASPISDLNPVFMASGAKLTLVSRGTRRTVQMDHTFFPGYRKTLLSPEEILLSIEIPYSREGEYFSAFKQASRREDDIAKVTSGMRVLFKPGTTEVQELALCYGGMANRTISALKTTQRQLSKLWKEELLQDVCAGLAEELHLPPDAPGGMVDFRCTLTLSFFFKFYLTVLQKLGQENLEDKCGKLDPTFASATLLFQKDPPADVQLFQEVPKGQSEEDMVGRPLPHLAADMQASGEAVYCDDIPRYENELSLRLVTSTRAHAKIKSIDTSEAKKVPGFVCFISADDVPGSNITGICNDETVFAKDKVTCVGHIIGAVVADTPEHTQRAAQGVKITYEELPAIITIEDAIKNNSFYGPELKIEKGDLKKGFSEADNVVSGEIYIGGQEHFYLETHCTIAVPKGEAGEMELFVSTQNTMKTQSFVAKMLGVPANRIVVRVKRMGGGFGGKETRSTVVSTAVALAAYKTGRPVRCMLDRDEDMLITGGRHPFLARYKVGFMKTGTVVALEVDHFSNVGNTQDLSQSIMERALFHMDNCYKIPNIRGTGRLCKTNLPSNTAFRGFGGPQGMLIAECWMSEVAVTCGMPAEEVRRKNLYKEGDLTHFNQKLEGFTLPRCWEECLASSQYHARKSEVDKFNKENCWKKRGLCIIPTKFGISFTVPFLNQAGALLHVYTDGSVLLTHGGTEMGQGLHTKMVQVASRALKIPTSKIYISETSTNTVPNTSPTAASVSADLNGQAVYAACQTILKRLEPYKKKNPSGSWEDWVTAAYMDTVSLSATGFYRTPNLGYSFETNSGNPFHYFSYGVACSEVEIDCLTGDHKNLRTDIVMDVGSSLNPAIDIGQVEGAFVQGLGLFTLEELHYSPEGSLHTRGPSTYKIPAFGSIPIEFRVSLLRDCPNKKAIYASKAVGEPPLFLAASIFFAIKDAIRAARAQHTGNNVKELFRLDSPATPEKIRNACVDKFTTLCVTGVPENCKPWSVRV

Oc1cc(O)cc(C2c3c(/C=C/c4ccc(O)c(O)c4)cc(O)cc3OC2c2ccc(O)c(O)c2)c1 (stereo not shown) [scirpusin B]
superoxide anion removal activity [1]: has superoxide anion removal activity
α-amylase activity inhibitory activity (α-amylase): has α-amylase activity inhibitory activity
xanthine oxidase inhibitory activity (xanthine oxidase): has xanthine oxidase inhibitory activity
anti-HIV activity (HIV): has anti-HIV activity
